≈ marks a conversion by molar mass, not a printed value. Like-named read-outs stand apart in the source and are kept apart here.
What was measured:
Format in all cases: cell-based
HTLV-IIIb = assay: HIV-1 acutely infected cell lines, p24 antigen levels; conditions: p24 antigen at day 6; for ID50 CEM: CEM cells infected with HTLV-IIIb; for ID50 H9: H9 cells infected with HTLV-IIIb; for ID50 Jurkat: Jurkat cells infected with HTLV-IIIb; for ID50 MT-4: MT-4 cells infected with HTLV-IIIb; for ID50 U937: U937 cells infected with HTLV-IIIb
Protocol: Determination of IC50 ([…]) in HIV-1 Acutely Infected Cell Lines in the Presence of Differet Antiviral Compounds
Various cell lines were infected with HTLV-IIIb (TCID50=200) and then cultured with various concentrations of drug. IC50 was determined by measuring p24 antigen levels in the supernatant of cultures at day 6 of infection.

[1] = system: HIV-1 HXB2D-65 K→R (ddC resistance mutation); assay: IC50 in CBMCs with constructed mutated virus HXB2D-65; conditions: Human immunodeficiency virus 1, read-out: IC50 HXB2D-65 K→R
Protocol: (§1) In short, viruses (HTLV-IIIB) that had initially been grown on MT-4 cells were passaged onto phytohemaglutinin-prestimulated cord blood mononuclear cells (CBM). For subsequent analysis, samples of CBM (5×10^5 cells per mL) were pretreated with various concentrations of the different compounds for 4 h and were then inoculated with CBL-grown HIV-1 at a multiplicity of infection of 1.0 in the concentration of the compound used for the pretreatment. Fresh medium, including the appropriate concentration of the compound was added three times weekly, and fresh phytohemaglutinin-prestimulated CBM (5×10^5 cells per mL) were added at 2-day intervals. The calculation of IC50 was determined on the basis of RT levels in culture fluids as described in Gao et al., (1992), J. Virol. 66: 12-19.
(§2) Determination of IC50 (μM) in Different Mutated Isolates of HIV-1 in the Presence of Different Antiviral Compounds
(§3) The procedure is similar to the procedure used in the CBM assay, with the exception that constructed virus and construted mutated virus were used.
The constructed virus HXB2D-65 correspond to the ddC resistance mutation and the constructed virus HXB2D-184 correspond to the 3TC™ and FTC resistance mutation.

MT-4 = assay: Cell culture inhibitory dose (CCID50) in MT-4; conditions: cell counting, trypan blue exclusion, 7 days post drug treatment
Protocol: Evaluation of Cell Culture Inhibitory Dose (CCID50)
Cell growth was determined by cell counting and viability by trypan blue exclusion 7 days post drug treatment. CCID50 is expressed as the drug concentration which inhibits 50% of cell growth.

HIV-1 (strain RF) = assay: Inhibition of syncytium formation in C8166 cells
Protocol: Inhibition of Syncytium Formation
C8166 cells were infected with HIV-1 (strain RF) at a moil of 1×10^−3 infectious units/cell and adsorbed at room temperature for 60 minutes. After adsorption, the cells were washed three times in growth medium. Aliquots of 10^5 cells were added to each well of 24-well plates containing serial dilution of test compounds at final concentrations of 50 μg/ml to 0.05 μg/ml in RPMI® 1640 growth medium. Untreated infected cells and untreated uninfected cells were also included as controls. The plates were incubated at 37° C./5% CO2 for 3-4 days in humidified containers. The cells were examined daily for evidence of HIV-1 induced syncytium formation. The syncytia were quantified by reference to the untreated infected controls, and the dose of compound required to reduce the cytopathic effect by 50% (ID50) was calculated.

HIV-1 IIIB = assay: IC50 in CBMCs with HIV-1 isolate IIIB; conditions: Human immunodeficiency virus 1
Protocol: as §1, §2, §3

[2] = system: cord blood mononuclear cells (CBM); assay: Cytotoxicity (CD50) reported with CBM assay
Protocol: Assays on cord blood mononuclear cells were done substantially as described in Gu et al., J. Virol.
as §1, with “The calculation of IC50 was determined on the basis of RT levels in culture fluids as described in Gao et al., (1992), J. Virol.” left out

MT-4 cells = assay: Formazan (MTT) assay, drug-induced cytotoxicity in uninfected MT-4 cells; conditions: human, 7 days
Protocol: Anti-HIV-1 antiviral activity was determined in MT-4 calls and MT-4 cells that have been made resistant to 3TC™. […] An uninfected cell suspension was prepared in parallel to evaluate drug-induced cytotoxicity. The two suspensions were incubated for 90 minutes at room temperature. Test compounds were serially diluted in 10-fold decrements from 100 μg/ml to 0.01 μg/ml (final concentrations in two 96 well microtitre plates. 20 μl of infected cell suspension were inoculated into each well of one of the plates (anti-viral), while 20 μl of uninfected cell suspension were added to each well of the second plate (cytotoxicity). The plates were then incubated for 7 days at 37° C. After incubation, 10 μl of 3-(4,5-dimethylthiazol-2-yl)-2,5-diphenyltetrazolium bromide (MTT) at 20 mg/ml was added to all wells and the plates incubated for a further 90 minutes at 37° C.
150 μl of 10% (v/v) alcoholic Triton X-100 was then added and the cells resuspended. After 15 minutes at room temperature, the plates were analyzed in a Multiskan MC reader at 405 nm. […] The optical density values for the cytotoxicity controls and the antiviral test wells were graphically plotted and the dose of compounds required to inhibit the conversion of MMT to 50% of the untreated uninfected controls was calculated.

[3] = Human immunodeficiency virus 1, C8166 cells, HIV-1 strain RF, syncytium formation, 3-4 days, read-out: IC50 (dose reducing the cytopathic effect by 50%, ID50)

Compound	ID50 CEM (HTLV-IIIb) [µg/mL]	ID50 H9 (HTLV-IIIb) [µg/mL]	ID50 Jurkat (HTLV-IIIb) [µg/mL]	ID50 MT-4 (HTLV-IIIb) [µg/mL]	ID50 U937 (HTLV-IIIb) [µg/mL]	IC50 [1] [nM]	CCID50 MT-4 (MT-4) [µM]	IC50 (HIV-1 (strain RF); [3]) [µg/mL]	IC50 (HIV-1 IIIB) [nM]	CD50 [2] [µg/mL]	CD50 (50% cytotoxic dose) (MT-4 cells) [µg/mL]	IC50 (HIV-1 (strain RF); Human immunodeficiency virus 1, C8166, read-out: IC50 (dose reducing the cytopathic effect by 50%, ID50)) [µg/mL]
Nc1nc(=O)n([C@H]2CO[C@@H](CO)S2)cc1F [compound 3, 2R-hydroxymethyl-4R-(5′-fluorocytosin-1′-yl)-1,3-oxathiolane]	0.2 (≈ 0.809 µM)	0.1 (≈ 0.404 µM)	3.5 (≈ 14.2 µM)	3.0 (≈ 12.1 µM)	0.6 (≈ 2.43 µM)	11500	>500	0.17 (≈ 0.688 µM)	830	>23	>100	
Nc1nc(=O)n([C@@H]2CO[C@H](CO)S2)cc1F [compound 4, 2S-hydroxymethyl-4S-(5′-fluorocytosin-1′-yl)-1,3-oxathiolane]	0.3 (≈ 1.21 µM)	1.0 (≈ 4.04 µM)	6.0 (≈ 24.3 µM)	3.2 (≈ 12.9 µM)	0.4 (≈ 1.62 µM)	6500	>500	0.03 (≈ 0.121 µM)	340	>23	100	
Nc1ccn([C@@H]2CO[C@H](CO)S2)c(=O)n1 [Compound #2, 2S-hydroxymethyl-4S-(cytosin-1′-yl)-1,3-oxathiolane]	0.4 (≈ 1.74 µM)	0.075 (≈ 0.327 µM)	1.8 (≈ 7.85 µM)	0.9 (≈ 3.93 µM)	0.3 (≈ 1.31 µM)	3500	>500		280	>23	>100	0.08 (≈ 0.349 µM)

— patent US6369066B1, “Substituted 1,3-oxathiolanes with antiviral properties” (BioChem Pharma, Inc., priority 1990, dated 2002)
